Source: paper PMC5383655, “Development of Automated Patch Clamp Technique to Investigate CFTR Chloride Channel Function” (Frontiers in Pharmacology, 2017)

Biological target: T1, cystic fibrosis transmembrane conductance regulator (CFTR), wt (Homo sapiens, UniProt P13569)
T1 construct: wt-CFTR stably expressed in BHK cells
Test: automated whole-cell patch clamp, acute potentiation of current activated by […] Fsk on addition of […] compound
Type: cell-based

T1 sequence (P13569 whole entry): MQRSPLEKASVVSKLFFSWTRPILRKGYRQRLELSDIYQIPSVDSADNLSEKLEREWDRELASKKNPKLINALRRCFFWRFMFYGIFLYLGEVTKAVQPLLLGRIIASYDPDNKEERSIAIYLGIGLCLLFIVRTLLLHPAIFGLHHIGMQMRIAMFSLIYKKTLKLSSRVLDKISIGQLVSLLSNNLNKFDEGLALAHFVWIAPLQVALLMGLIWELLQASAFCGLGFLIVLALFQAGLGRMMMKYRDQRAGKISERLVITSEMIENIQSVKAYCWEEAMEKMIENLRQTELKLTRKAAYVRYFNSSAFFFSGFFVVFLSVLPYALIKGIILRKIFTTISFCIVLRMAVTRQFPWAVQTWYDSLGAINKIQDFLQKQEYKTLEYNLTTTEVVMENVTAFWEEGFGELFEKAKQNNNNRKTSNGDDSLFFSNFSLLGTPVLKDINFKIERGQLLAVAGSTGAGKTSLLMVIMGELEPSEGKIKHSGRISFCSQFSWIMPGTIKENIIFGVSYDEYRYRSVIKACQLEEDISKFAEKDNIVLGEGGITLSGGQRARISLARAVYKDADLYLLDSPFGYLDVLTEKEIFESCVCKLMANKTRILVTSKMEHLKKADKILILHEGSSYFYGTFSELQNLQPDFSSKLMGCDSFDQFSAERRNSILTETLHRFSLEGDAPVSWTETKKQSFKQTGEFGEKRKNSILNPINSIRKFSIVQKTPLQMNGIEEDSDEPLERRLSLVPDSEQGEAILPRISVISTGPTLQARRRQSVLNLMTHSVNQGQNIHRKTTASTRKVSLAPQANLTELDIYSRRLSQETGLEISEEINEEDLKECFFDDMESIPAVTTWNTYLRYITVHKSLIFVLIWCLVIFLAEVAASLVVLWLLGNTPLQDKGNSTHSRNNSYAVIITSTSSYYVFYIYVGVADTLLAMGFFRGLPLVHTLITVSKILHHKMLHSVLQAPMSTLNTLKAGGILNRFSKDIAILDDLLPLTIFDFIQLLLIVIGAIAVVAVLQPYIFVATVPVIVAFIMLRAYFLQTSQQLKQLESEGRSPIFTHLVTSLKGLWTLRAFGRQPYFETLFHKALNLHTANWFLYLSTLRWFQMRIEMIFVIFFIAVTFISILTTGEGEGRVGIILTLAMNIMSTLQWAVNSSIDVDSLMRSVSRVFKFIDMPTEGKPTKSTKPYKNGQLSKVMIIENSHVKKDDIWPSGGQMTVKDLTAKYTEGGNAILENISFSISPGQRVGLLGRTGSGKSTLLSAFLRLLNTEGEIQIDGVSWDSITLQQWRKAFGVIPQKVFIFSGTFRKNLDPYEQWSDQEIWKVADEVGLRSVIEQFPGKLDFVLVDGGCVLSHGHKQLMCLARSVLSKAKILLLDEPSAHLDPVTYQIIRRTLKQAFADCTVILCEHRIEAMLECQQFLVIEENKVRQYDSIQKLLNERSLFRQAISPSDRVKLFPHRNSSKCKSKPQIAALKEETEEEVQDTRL

## CC(C)(C)c1cc(C(C)(C)C)c(NC(=O)c2c[nH]c3ccccc3c2=O)cc1O [VX770]
  automated whole-cell patch clamp, acute potentiation of current activated by 1 μ: clearly demonstrate potentiation of the Fsk-activated current by the potentiator VX770
